Results as given in the NIST ThermoML archive (doi:10.1021/je200609g).
Numbers after ± are expanded uncertainties.

Test: xn = mol fraction of the nth substance listed
Details: 101 kPa, Liquid; for mass density: Vibrating tube method

CCn1cc[n+](C)c1.O=S(=O)([O-])C(F)(F)F [1-ethyl-3-methylimidazolium trifluoromethanesulfonate] + C1CCOC1
Details | mass density, 278.15 K [kg/m3] | mass density, 288.15 K [kg/m3] | mass density, 298.15 K [kg/m3] | mass density, 308.15 K [kg/m3] | mass density, 318.15 K [kg/m3] | speed of sound, 278.15 K [m/s] | speed of sound, 288.15 K [m/s] | speed of sound, 298.15 K [m/s] | speed of sound, 308.15 K [m/s] | speed of sound, 318.15 K [m/s]
x1 = 0.051 | 964.39 ± 0.22 | 953.89 ± 0.22 | 943.29 ± 0.22 | 932.59 ± 0.22 | 921.76 ± 0.23 | 1362.7 ± 1.5 | 1316.9 ± 1.4 | 1271.7 ± 1.4 | 1227 ± 1.4 | 1182.8 ± 1.3
x1 = 0.1 | 1013.94 ± 0.21 | 1003.61 ± 0.21 | 993.23 ± 0.21 | 982.77 ± 0.21 | 972.18 ± 0.22 | – | 1318.7 ± 1.5 | 1275.5 ± 1.4 | 1233.3 ± 1.4 | 1191.4 ± 1.4
x1 = 0.1503 | 1059.68 ± 0.2 | 1049.68 ± 0.2 | 1039.61 ± 0.2 | 1029.5 ± 0.2 | 1019.22 ± 0.2 | – | 1325.4 ± 1.5 | 1285.5 ± 1.4 | 1246.5 ± 1.4 | 1207.2 ± 1.4
x1 = 0.2001 | 1098.67 ± 0.2 | 1088.88 ± 0.2 | 1079.04 ± 0.2 | 1069.18 ± 0.2 | 1059.3 ± 0.2 | 1373.3 ± 1.5 | 1334.8 ± 1.5 | 1297.4 ± 1.5 | 1260.7 ± 1.4 | 1224.5 ± 1.4
x1 = 0.3001 | 1166.19 ± 0.27 | 1155.19 ± 0.27 | 1145.24 ± 0.26 | 1135.87 ± 0.26 | 1126.45 ± 0.26 | 1387.7 ± 1.6 | 1353.8 ± 1.6 | 1320.8 ± 1.6 | 1288.7 ± 1.5 | 1257.1 ± 1.5
x1 = 0.3992 | 1217.18 ± 0.38 | 1207.94 ± 0.37 | 1198.76 ± 0.36 | 1189.62 ± 0.36 | 1180.52 ± 0.35 | 1403.5 ± 1.7 | 1372.7 ± 1.7 | 1342.8 ± 1.7 | 1313.3 ± 1.6 | 1284.5 ± 1.6
x1 = 0.4995 | 1261.1 ± 0.52 | 1252.06 ± 0.51 | 1243.08 ± 0.5 | 1234.16 ± 0.5 | 1225.28 ± 0.49 | 1414.7 ± 1.8 | 1388 ± 1.8 | 1361.4 ± 1.8 | 1335.5 ± 1.8 | 1309.7 ± 1.7
x1 = 0.599 | 1297.75 ± 0.7 | 1288.87 ± 0.69 | 1280.05 ± 0.68 | 1271.3 ± 0.67 | 1262.63 ± 0.66 | 1432.5 ± 1.9 | 1405.8 ± 1.9 | 1379.9 ± 1.9 | 1354.5 ± 1.9 | 1329.9 ± 1.9
x1 = 0.7014 | 1330 ± 0.92 | 1321.24 ± 0.9 | 1312.54 ± 0.89 | 1303.92 ± 0.88 | 1295.36 ± 0.87 | 1446.6 ± 2.1 | 1421.4 ± 2 | 1396.8 ± 2 | 1372.6 ± 2 | 1349 ± 2
x1 = 0.7965 | 1356.21 ± 1.1 | 1347.55 ± 1.1 | 1338.96 ± 1.1 | 1330.44 ± 1.1 | 1321.98 ± 1.1 | 1459 ± 2.2 | 1434.6 ± 2.2 | 1410.8 ± 2.2 | 1387.6 ± 2.1 | 1365.1 ± 2.1
x1 = 0.849 | 1369.15 ± 1.3 | 1360.54 ± 1.3 | 1352 ± 1.3 | 1343.53 ± 1.2 | 1335.11 ± 1.2 | 1465.4 ± 2.3 | 1441.4 ± 2.2 | 1418.1 ± 2.2 | 1395.2 ± 2.2 | 1372.9 ± 2.2
x1 = 0.899 | 1380.34 ± 1.4 | 1371.78 ± 1.4 | 1363.27 ± 1.4 | 1354.82 ± 1.4 | 1346.41 ± 1.4 | 1470.5 ± 2.3 | 1446.4 ± 2.3 | 1423.1 ± 2.3 | 1400.3 ± 2.3 | 1378.1 ± 2.3
x1 = 0.9511 | 1391.34 ± 1.6 | 1382.83 ± 1.6 | 1374.36 ± 1.6 | 1365.93 ± 1.6 | 1357.57 ± 1.5 | 1476 ± 2.4 | 1452.3 ± 2.4 | 1429.2 ± 2.4 | 1406.8 ± 2.4 | 1384.9 ± 2.4

CCn1cc[n+](C)c1.O=S(=O)([O-])C(F)(F)F [1-ethyl-3-methylimidazolium trifluoromethanesulfonate] + CC(C)O
speed of sound [m/s], Sing-around technique in a fixed-path interferometer
Details | 278.15 K | 288.15 K | 298.15 K | 308.15 K | 318.15 K | 328.15 K
x1 = 0.0499 | 1220.6 ± 0.77 | 1188.2 ± 0.75 | 1156.4 ± 0.74 | 1124.5 ± 0.74 | 1092.5 ± 0.73 | 1060.1 ± 0.72
x1 = 0.0996 | 1233.3 ± 0.8 | 1203.2 ± 0.79 | 1173.6 ± 0.78 | 1143.9 ± 0.77 | 1114.1 ± 0.76 | 1084.3 ± 0.76
x1 = 0.15 | 1249.7 ± 0.85 | 1221.4 ± 0.84 | 1193.3 ± 0.83 | 1165.3 ± 0.82 | 1137.2 ± 0.81 | 1109 ± 0.81
x1 = 0.2001 | 1267.9 ± 0.9 | 1240.6 ± 0.89 | 1213.7 ± 0.89 | 1186.8 ± 0.88 | 1159.9 ± 0.87 | 1133 ± 0.87
x1 = 0.2994 | 1305.6 ± 1 | 1279.7 ± 1 | 1254.2 ± 1 | 1228.8 ± 1 | 1203.6 ± 1 | 1178.5 ± 1
x1 = 0.4004 | 1341.7 ± 1.2 | 1316.5 ± 1.2 | 1291.8 ± 1.2 | 1267.5 ± 1.1 | 1243.3 ± 1.1 | 1219.5 ± 1.1
x1 = 0.4997 | 1373.6 ± 1.3 | 1348.8 ± 1.3 | 1324.7 ± 1.3 | 1301 ± 1.3 | 1277.6 ± 1.3 | 1254.6 ± 1.3
x1 = 0.5999 | 1401.7 ± 1.5 | 1377.3 ± 1.5 | 1353.6 ± 1.5 | 1330.4 ± 1.5 | 1307.7 ± 1.5 | 1285.2 ± 1.5
x1 = 0.7019 | 1426.3 ± 1.6 | 1402.6 ± 1.6 | 1379.4 ± 1.6 | 1356.7 ± 1.6 | 1334.4 ± 1.6 | 1312.6 ± 1.6
x1 = 0.7987 | 1447 ± 1.8 | 1423.4 ± 1.8 | 1400.5 ± 1.8 | 1378.1 ± 1.8 | 1356.2 ± 1.8 | 1334.8 ± 1.8
x1 = 0.8519 | 1458 ± 1.9 | 1434.1 ± 1.9 | 1411.2 ± 1.9 | 1388.7 ± 1.9 | 1366.7 ± 1.9 | 1345.2 ± 1.9
x1 = 0.8989 | 1465.9 ± 2 | 1442.5 ± 2 | 1419.8 ± 2 | 1397.5 ± 2 | 1375.9 ± 2 | 1354.6 ± 1.9
x1 = 0.9462 | 1474.3 ± 2 | 1450.8 ± 2 | 1428.1 ± 2 | 1406 ± 2 | 1384.3 ± 2 | 1363.1 ± 2

mass density [kg/m3]
Details | 278.15 K | 288.15 K | 298.15 K | 308.15 K | 318.15 K | 328.15 K
x1 = 0.0499 | 868.82 ± 0.27 | 860.62 ± 0.27 | 852.27 ± 0.27 | 843.73 ± 0.27 | 834.95 ± 0.27 | 825.89 ± 0.27
x1 = 0.0996 | 929.8 ± 0.25 | 921.53 ± 0.25 | 913.15 ± 0.25 | 904.62 ± 0.25 | 895.92 ± 0.25 | 887.02 ± 0.26
x1 = 0.15 | 984.2 ± 0.22 | 975.84 ± 0.22 | 967.41 ± 0.22 | 958.87 ± 0.22 | 950.21 ± 0.23 | 941.42 ± 0.23
x1 = 0.2001 | 1032.07 ± 0.2 | 1023.66 ± 0.2 | 1015.19 ± 0.2 | 1006.67 ± 0.2 | 998.06 ± 0.2 | 989.35 ± 0.2
x1 = 0.2994 | 1111.77 ± 0.25 | 1103.29 ± 0.25 | 1094.81 ± 0.25 | 1086.3 ± 0.24 | 1077.77 ± 0.24 | 1069.21 ± 0.24
x1 = 0.4004 | 1177.58 ± 0.35 | 1169.07 ± 0.35 | 1160.58 ± 0.34 | 1152.12 ± 0.34 | 1143.67 ± 0.33 | 1135.22 ± 0.33
x1 = 0.4997 | 1231.42 ± 0.5 | 1222.91 ± 0.49 | 1214.45 ± 0.48 | 1206.03 ± 0.47 | 1197.63 ± 0.46 | 1189.27 ± 0.46
x1 = 0.5999 | 1276.64 ± 0.68 | 1268.13 ± 0.67 | 1259.68 ± 0.66 | 1251.27 ± 0.65 | 1242.91 ± 0.64 | 1234.58 ± 0.63
x1 = 0.7019 | 1315.15 ± 0.9 | 1306.65 ± 0.88 | 1298.2 ± 0.87 | 1289.82 ± 0.86 | 1281.48 ± 0.85 | 1273.2 ± 0.83
x1 = 0.7987 | 1347.13 ± 1.1 | 1338.64 ± 1.1 | 1330.2 ± 1.1 | 1321.82 ± 1.1 | 1313.5 ± 1.1 | 1305.24 ± 1.1
x1 = 0.8519 | 1362.88 ± 1.3 | 1354.39 ± 1.3 | 1345.96 ± 1.3 | 1337.58 ± 1.2 | 1329.26 ± 1.2 | 1320.99 ± 1.2
x1 = 0.8989 | 1375.94 ± 1.4 | 1367.46 ± 1.4 | 1359.02 ± 1.4 | 1350.65 ± 1.4 | 1342.33 ± 1.4 | 1334.07 ± 1.4
x1 = 0.9462 | 1388.37 ± 1.6 | 1379.89 ± 1.6 | 1371.46 ± 1.6 | 1363.08 ± 1.5 | 1354.76 ± 1.5 | 1346.5 ± 1.5
